Type in all cases: cell-based
Test [1] concerns IL-4 stimulated CD23 upregulation in human Ramos B cells (JAK-1/JAK-3, Stat-6). In words: Assay for Ramos B-Cell Line Stimulated with IL-4 (CD23 upregulation, FACS). Conditions: Table III Example 3. The method in brief:
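Flow cytometry of CD23 staining after 20-24 h IL-4 stimulation (50 units/mL final) of human Ramos B cells in RPMI with 5% serum. Cells, 5×10^4 per point, received compound or DMSO vehicle for 1 h at 37° C prior to stimulation.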

Test [2] relates to primary human T-cells (IL-2 induced proliferation, JAK-1/JAK-3, Stat-5). Put plainly: Primary Human T-Cell Proliferation Assay Stimulated with IL-2 (CellTiter-Glo). Conditions: Table III Example 4. In a few lines: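 Read-out is intracellular ATP luminescence (CellTiter-Glo) after 72 h at 37 °C of IL-2-driven growth. Cells, pre-stimulated via TCR and CD28 then washed free of IL-2, were resuspended in Yssel's medium, given 80 U/mL IL-2 in the cell suspension plus duplicate compound; unstimulated wells lacked IL-2.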
(Cellular ATP, detected with luciferase, serves as a proxy for viable cell number.)

Test [3] has as its system IFNγ induced ICAM-1 (CD54) up-regulation in U937 human monocytic cells (JAK/Stat pathway). In words: U937 IFNγ ICAM1 FACS Assay. Conditions: Table III Example 6; 10 ng/mL IFNγ, 18-24 hours. The text has this: A549 lung epithelial cells and U937 cells up-regulate ICAM-1 (CD54) surface expression in response to a variety of different stimuli. Therefore, using ICAM-1 expression as readout, test compound effects on different signaling pathways can be assessed in the same cell type. Stimulation with IL-1β through the IL-1β receptor activates the TRAF6/NFκB pathway resulting in up-regulation of ICAM-1. IFNγ induces ICAM-1 up-regulation through activation of the JAK1/JAK2 pathway. The up-regulation of ICAM-1 can be quantified by flow cytometry across a compound dose curve and EC50 values are calculated. Exemplary assays of this type are described in greater detail in Examples 5 and 6. U937 human monocytic cells up-regulate ICAM-1 (CD54) surface expression in response to a variety of different stimuli. Therefore, using ICAM-1 expression as readout, compound effects on different signaling pathways can be assessed in the same cell type. IFNγ up-regulates ICAM-1 through activation of the JAK/Stat pathway. In this example, the up-regulation of ICAM-1 by IFNγ was assessed. […] The cells were then plated at a concentration of 100,000 cells per 160 μL in 96 well flat bottom plates. The test compounds were then diluted as follows: 10 mM test compound was diluted 1:5 in DMSO (3 μL 10 mM test compound in 12 μL DMSO), followed by a 1:3 serial dilution of test compound in DMSO (6 μL test compound serially diluted into 12 μL DMSO to give 3-fold dilutions). […] For control wells, 4 μL of DMSO was diluted into 76 μL 10% RPMI. […] The cells and compounds were then pre-incubated for 30 minutes at 37° C. with 5% CO2. […] The cells were kept under conditions for stimulation for 18-24 hours at 37° C. with 5% CO2. […] Cells were spun down at 1000 rpm for 5 minutes at 4° C., following which the supernatant was removed. […] The cells were then incubated on ice in the dark for 30 minutes. […] After suspension, the cells were centrifuged at 1000 rpm for 5 min at 4° C. […] Detection was performed using a BD LSR I System Flow Cytometer, purchased from BD Biosciences of San Jose, Calif. The live cells were gated for live scatter and the geometric mean of ICAM-APC was measured (Becton-Dickinson CellQuest software version 3.3, Franklin Lakes, N.J.). Both % live cells and ICAM-1 expression was analyzed. The assays for the test compounds were carried out in parallel with a control compound of known activity.

The record followed here is patent US9481654B2, “Compositions and methods for inhibition of the JAK pathway” (Rigel Pharmaceuticals, Inc., priority 2006, dated 2016).

With `CCCN(Cc1ccc(Nc2nc(Nc3ccc(C)c(S(N)(=O)=O)c3)ncc2C)cc1)S(=O)(=O)C1CC1` [Compound I-81, N2-(3-aminosulfonyl-4-methyl)phenyl-N4-[4-(N-cyclopropylsulfonyl-N-propylamino)methyl]phenyl-5-methyl-2,4-pyrimidinediamine], the concentration for half-maximal inhibition (IC50) (usually the concentration needed to halve the response being measured) came out at 73.6 nM in test [1], 89.2 nM in test [2] and 215 nM in test [3].
For `CCC(=O)NS(=O)(=O)c1ccc(Nc2ncc(C)c(Nc3ccc(CNS(=O)(=O)C4CC4)cc3)n2)cc1` [Compound I-83, N4-(4-cyclopropylsulfonylaminomethyl)phenyl-5-methyl-N2-(4-propionylaminosulfonyl)phenyl-2,4-pyrimidinediamine], in that order: 181 nM, 152 nM and 266 nM.
The matching figures for `Cc1ccc(Nc2ncc(F)c(Nc3ccc(CNS(=O)(=O)c4cccnc4)cc3)n2)cc1S(N)(=O)=O` [Compound I-90, N2-(3-aminosulfonyl-4-methyl)phenyl-5-fluoro-N4-[4-(pyrid-3-yl)sulfonylaminomethyl]phenyl-2,4-pyrimidinediamine]: 152 nM, 349 nM and 2430 nM.
For `NS(=O)(=O)c1cccc(Nc2ncc(F)c(Nc3ccc(CNS(=O)(=O)c4cccnc4)cc3)n2)c1` [Compound I-95, N2-(3-aminosulfonyl)phenyl-5-fluoro-N4-[4-(pyrid-3-yl)sulfonylaminomethyl]phenyl-2,4-pyrimidinediamine], in that order: 160 nM, 286 nM and 2690 nM.
For the compound `Cc1cnc(Nc2ccc(S(N)(=O)=O)cc2)nc1Nc1ccc(CNS(=O)(=O)CC(F)(F)F)cc1` [Compound I-96, N2-(4-aminosulfonyl)phenyl-5-methyl-N4-(4-trifluoroethylsulfonylaminomethyl)phenyl-2,4-pyrimidinediamine], the 50% inhibitory concentration (IC50) in test [1] is 74.4 nM; in test [2], 105 nM; in test [3] it was 3670 nM.
For `Cc1ccc(Nc2ncc(C)c(Nc3ccc(CNS(=O)(=O)CC(F)(F)F)cc3)n2)cc1S(N)(=O)=O` [Compound I-98, N2-(3-aminosulfonyl-4-methyl)phenyl-5-methyl-N4-(4-trifluoroethylsulfonylaminomethyl)phenyl-2,4-pyrimidinediamine], in that order: 25.3 nM, 52.1 nM and 152 nM.
For `Cc1cnc(Nc2cccc(S(N)(=O)=O)c2)nc1Nc1ccc(CNS(=O)(=O)c2cccnc2)cc1` [Compound I-100, N2-(3-aminosulfonyl)phenyl-5-methyl-N4-[4-(pyrid-3-yl)sulfonylaminomethyl]phenyl-2,4-pyrimidinediamine], in that order: 102 nM, 153 nM and 489 nM.
Regarding `Cc1ccc(Nc2ncc(C)c(Nc3ccc(CNS(=O)(=O)c4cccnc4)cc3)n2)cc1S(N)(=O)=O` [Compound I-101, N2-(3-aminosulfonyl-4-methyl)phenyl-5-methyl-N4-[4-(pyrid-3-yl)sulfonylaminomethyl]phenyl-2,4-pyrimidinediamine], the IC50 was determined as 62.4 nM in test [1], 224 nM in test [2] and 433 nM in test [3].
`Cc1ccc(Nc2ncc(C)c(Nc3cccc(CN(C)S(=O)(=O)C4CC4)c3)n2)cc1S(N)(=O)=O` [Compound I-122, N2-(3-aminosulfonyl-4-methyl)phenyl-N4-[3-(N-cyclopropylsulfonyl-N-methyl)aminomethyl]phenyl-5-methyl-2,4-pyrimidinediamine]: the IC50 is 81.6 nM in test [1], 88.3 nM in test [2] and 155 nM in test [3].
For `Cc1cnc(Nc2ccc(S(N)(=O)=O)cc2)nc1Nc1ccc(CN(C)S(=O)(=O)C2CC2)cc1` [Compound I-127, N2-(4-aminosulfonyl)phenyl-N4-[4-(N-cyclopropylsulfonyl-N-methyl)aminomethyl]phenyl-5-methyl-2,4-pyrimidinediamine], in that order: 126 nM, 233 nM and 616 nM.
